We go through three molecules from patent US20040171563A1, “Novel use of tyrosine kinase inhibitor” (priority 2001, published 2004).

Assay [1] concerns the target T1, GTK (Mus musculus, UniProt Q922K9).
T1 construct: made in house
Put plainly: in vitro kinase assay for GTK activity. Type of assay: biochemical. As to conditions: for inhibition of GTK (qualitative): screening of commercially available tyrosine kinase inhibitors; for Ki: inhibition of GTK activity in in vitro kinase assays. On the procedure: (§1) Ki using AG957 was approximately 1 μM and that of SU4984 was about 10 μM. These inhibitors were added to Islets of Langerhans in in vitro cultures together with the cytokines IL-1β+IFN-γ, and apoptosis was determined by propidium iodide staining after 24 h. It was shown that AG957 and SU 4984 prevented cytokine-induced apoptosis by 60 and 75%, respectively, which further lends support to the view that GTK-inhibition prevents beta-cell destruction in type 1 diabetes. […] It is expected that also human FRK will be inhibited.
Assay for the assessment of GTK (FRK) kinase activity: The basis for screening for specific GTK kinase inhibitors is in vitro kinase assays, utilizing baculovirus produced GTK which is purified by immunoprecipitation using the GTK antibody. Both these reagents are available for the skilled person within this field. Phosphorylation of a synthetic peptide substrate will be studied (Annerén and Welsh, 2000) testing different concentrations of inhibitors, and IC50 values can then be determined for inhibition of GTK kinase activity. The specificity of drug-induced GTK-inhibition is then assessed by comparing the IC50 values with those of other tyrosine kinases.

Assay [2] deals with Islets of Langerhans. Put plainly: cytokine-induced apoptosis in Islets of Langerhans, propidium iodide staining. It counts as cell-based. As to conditions: in vitro islet cultures with IL-1β+IFN-γ, propidium iodide staining after 24 h. Here is the method:
as §1

T1 sequence (Q922K9 whole entry): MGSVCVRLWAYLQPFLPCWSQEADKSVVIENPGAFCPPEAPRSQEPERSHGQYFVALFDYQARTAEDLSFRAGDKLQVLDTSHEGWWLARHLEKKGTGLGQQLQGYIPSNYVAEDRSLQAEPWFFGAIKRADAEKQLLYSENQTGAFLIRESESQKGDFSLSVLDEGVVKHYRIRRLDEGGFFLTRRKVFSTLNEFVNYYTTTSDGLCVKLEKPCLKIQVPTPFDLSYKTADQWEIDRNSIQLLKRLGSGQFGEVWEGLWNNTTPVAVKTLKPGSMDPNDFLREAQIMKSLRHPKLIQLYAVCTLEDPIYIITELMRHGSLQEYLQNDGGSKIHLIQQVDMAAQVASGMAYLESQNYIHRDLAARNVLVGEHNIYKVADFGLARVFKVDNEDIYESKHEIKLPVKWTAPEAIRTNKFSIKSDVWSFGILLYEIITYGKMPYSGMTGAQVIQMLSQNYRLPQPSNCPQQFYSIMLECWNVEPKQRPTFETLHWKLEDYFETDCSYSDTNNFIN

On to `N#C/C(=C\c1ccc(O)c(O)c1)C(=O)O` [AG 30], for which the “inhibition of GTK (qualitative)” value in assay [1] was “inhibit GTK with a fair degree of specificity”.

As to `O=CN1CCN(c2ccc(/C=C3\C(=O)Nc4ccccc43)cc2)CC1` [SU4984], in assay [1], the Ki – broadly, the dissociation constant of the complex between target and ligand, obtained from inhibition or displacement – was roughly 10 µM; the “inhibition of GTK (qualitative)” value is on record as “inhibited GTK activity in in vitro kinase assays with a reasonably high degree of specificity”. For the same molecule, the “prevention of cytokine-induced apoptosis” value in assay [2] is 75%.

With `COC(=O)c1ccc(NCc2cc(O)ccc2O)cc1` [AG957], in assay [1], the inhibition constant (Ki) is roughly 1 µM and the “inhibition of GTK (qualitative)” value was “inhibited GTK activity in in vitro kinase assays with a reasonably high degree of specificity”. Further, in assay [2], the “prevention of cytokine-induced apoptosis” value was determined as 60%.
